In article PMC2962730 (Journal of neurochemistry, 2010):
Residue numbers refer to the chain shown, from its start.

Columns and labels:
hVAChT A330V = target: T1, hVAChT A330V (Homo sapiens, UniProt Q16572, A330V); assay: [3H]ACh transport; format: biochemical
T1 sequence (Q16572 1-532 A330V): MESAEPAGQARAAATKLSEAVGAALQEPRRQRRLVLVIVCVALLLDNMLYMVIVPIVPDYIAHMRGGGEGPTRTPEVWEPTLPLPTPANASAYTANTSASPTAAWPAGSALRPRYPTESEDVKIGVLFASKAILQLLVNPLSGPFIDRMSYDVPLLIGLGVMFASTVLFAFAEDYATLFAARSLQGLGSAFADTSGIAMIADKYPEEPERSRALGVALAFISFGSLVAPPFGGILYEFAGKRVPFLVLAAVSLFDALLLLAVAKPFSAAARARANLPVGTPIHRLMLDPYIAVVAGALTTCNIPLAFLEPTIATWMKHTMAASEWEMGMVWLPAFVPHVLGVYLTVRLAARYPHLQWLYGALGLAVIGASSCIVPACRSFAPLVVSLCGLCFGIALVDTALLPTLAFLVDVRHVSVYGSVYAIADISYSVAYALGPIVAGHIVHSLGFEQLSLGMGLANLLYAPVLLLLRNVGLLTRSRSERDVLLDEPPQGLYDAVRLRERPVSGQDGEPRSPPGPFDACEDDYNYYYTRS

hVAChT Y60W = target: T2, hVAChT Y60W (Homo sapiens, UniProt Q16572, Y60W); assay: ACh equilibrium binding by competition against [3H]vesamicol
T2 sequence (Q16572 1-532 Y60W): T1 sequence (Q16572 1-532 A330V) with Y60W, V330A

hVAChT wild-type = target: T3, hVAChT wild-type (Homo sapiens, UniProt Q16572); assay: [3H]ACh transport; format: biochemical; conditions: WT hVAChT, pH 7.4
T3 sequence (Q16572 1-532): T1 sequence (Q16572 1-532 A330V) with V330A

hVAChT Y60A [1] = target: T4, hVAChT Y60A (Homo sapiens, UniProt Q16572, Y60A); assay: ACh equilibrium binding by competition against [3H]vesamicol
T4 sequence (Q16572 1-532 Y60A): T1 sequence (Q16572 1-532 A330V) with Y60A, V330A

hVAChT Y60A [2] = target: T4, hVAChT Y60A; assay: [3H]ACh transport; format: biochemical
hVAChT F392A = target: T5, hVAChT F392A (Homo sapiens, UniProt Q16572, F392A); assay: [3H]vesamicol saturation binding; conditions: pH 7.4
T5 sequence (Q16572 1-532 F392A): T1 sequence (Q16572 1-532 A330V) with V330A, F392A

[3] = read-out: KM, Michaelis-Menten constant for ACh transport, pH 7.4

Structure (SMILES) | Vmax/Bmax, ACh transport normalized to Bmax (hVAChT A330V; pH 7.4) | Km (hVAChT A330V; [3]) | Kd (hVAChT Y60W) | tighter binding of ACh than by wild-type (hVAChT Y60W; Y60W hVAChT vs wild-type) | FHA, fraction of the ACh sites that have high affinity (hVAChT Y60W; Y60W hVAChT, pH 7.4) | Vmax/Bmax, ACh transport normalized to Bmax (hVAChT wild-type) | Km (hVAChT wild-type; read-out: KM, Michaelis-Menten constant for ACh transport) | Kd (hVAChT Y60A [1]) | FHA, fraction of the ACh sites that have high affinity (hVAChT Y60A [1]; Y60A hVAChT, pH 7.4) | Vmax/Bmax, ACh transport normalized to Bmax (hVAChT Y60A [2]; pH 7.4) | Km (hVAChT Y60A [2]; [3]) | Bmax, maximal specific [3H]vesamicol binding (VAChT expression level) (hVAChT F392A)
CC(=O)OCC[N+](C)(C)C [ACh, acetylcholine] | 6.3 ± 1.3 min⁻¹ | 2200 ± 900 µM | 4.5 ± 0.1 mM | 2 fold | 0.86 ± 0.02 | 6.8 ± 0.5 min⁻¹ | 950 ± 200 µM | 8.2 ± 0.7 mM | 0.92 ± 0.02 | 4.7 ± 0.8 min⁻¹ | 480 ± 320 µM | 
O[C@@H]1CCCC[C@H]1N1CCC(c2ccccc2)CC1 (racemic) [vesamicol, ( )-trans-2-(4-phenylpiperidino)cyclohexanol] |  |  |  |  |  |  |  |  |  |  |  | 93 ± 5 pmol/mg
